Test results reported in US9561212B2, “Hepatitis C virus inhibitors” (BRISTOL-MYERS SQUIBB COMPANY, priority 2012, dated 2017).
Where two headings read alike, the source gives them in different places.

Test system: HCV 1b genotype
Experiment: microbe, parasite or virus in culture
Assay type: cell-based, Hepatitis C virus
Settings: HCV 1b replicon
Experimental: An HCV Replicon assay was utilized in the present disclosure, and was prepared, conducted and validated as described in commonly owned PCT/US2006/022197 and in O'Boyle et. al. Antimicrob Agents Chemother. 2005 April; 49(4):1346-53. Assay methods incorporating luciferase reporters have also been used as described (Apath.com).
HCV-neo replicon cells and replicon cells containing resistance substitutions in the NS5A region were used to test the currently described family of compounds.

[1] = Hepatitis C virus, read-out: Range: EC50 ranges against HCV 1b
[2] = read-out: Range: EC50 ranges against HCV 1b

## C#C[C@@H]1CC[C@@H](c2ncc(-c3ccc(-c4ccc(-c5cnc([C@@H]6CC[C@@H](C#C)N6C(=O)[C@@H](NC(=O)OC)C6C[C@@H](C)O[C@H](C)C6)[nH]5)cc4)cc3)[nH]2)N1C(=O)[C@@H](NC(=O)OC)C1C[C@@H](C)O[C@H](C)C1 (stereo partly drawn) [Example 10.1, dimethyl (4,4′-biphenyldiylbis(1H-imidazole-4,2-diyl((2S,5S)-5-ethynyl-2,1-pyrrolidinediyl)((1S)-1-((2R,6R)-2,6-dimethyltetrahydro-2H-pyran-4-yl)-2-oxo-2,1-ethanediyl)))biscarbamate]
Hepatitis C virus, read-out: 1b (μM): EC50 (Effective 50% inhibitory concentration) against the HCV 1b genotype
  EC50: 0.263 nM
[1]
  EC50: 0.1 to 0.9 nM

## COC(=O)NC(C(=O)N1[C@@H](C)CC[C@H]1c1nc(-c2ccc(-c3ccc(-c4c[nH]c([C@@H]5CC[C@H](C)N5C(=O)C(NC(=O)OC)=C5CC(C)(C#N)C5)n4)cc3)cc2)c[nH]1)=C1CC(C)(C#N)C1 (stereo partly drawn) [Example 12.1, dimethyl (4,4′-biphenyldiylbis(1H-imidazole-4,2-diyl((2S,5S)-5-methyl-2,1-pyrrolidinediyl)(1-(3-cyano-3-methylcyclobutylidene)-2-oxo-2,1-ethanediyl)))biscarbamate]
[1]
  EC50: 0.9 to 700 nM

## COC(=O)NC(C(=O)N1[C@@H](C)CC[C@H]1c1nc(-c2ccc(-c3ccc(-c4c[nH]c([C@@H]5CC[C@H](C)N5C(=O)C(NC(=O)OC)=C5CC(C)(C#N)C5)n4)cc3)cc2)c[nH]1)=C1CC(C)(C#N)C1 (stereo partly drawn) [Example 12.2, dimethyl (4,4′-biphenyldiylbis(1H-imidazole-4,2-diyl((2S,5S)-5-methyl-2,1-pyrrolidinediyl)(1-(3-cyano-3-methylcyclobutylidene)-2-oxo-2,1-ethanediyl)))biscarbamate]
[2]
  EC50: 0.9 to 700 nM

## COC(=O)N[C@H](C(=O)N1[C@@H](C)CC[C@H]1c1ncc(-c2ccc(-c3ccc(-c4cnc([C@@H]5CC[C@H](C)N5C(=O)[C@@H](NC(=O)OC)C5CC6(COC6)C5)[nH]4)cc3)cc2)[nH]1)C1CC2(COC2)C1 (stereo partly drawn) [Example 13, dimethyl (4,4′-biphenyldiylbis(1H-imidazole-5,2-diyl((2S,5S)-5-methyl-2,1-pyrrolidinediyl)((1S)-1-(2-oxaspiro[3.3]hept-6-yl)-2-oxo-2,1-ethanediyl)))biscarbamate]
[1]
  EC50: 0.00501 to 0.1 nM

## COC(=O)N[C@H](C(=O)N1CC2(CCCC2)C[C@H]1c1nc(-c2ccc(-c3ccc(-c4c[nH]c([C@@H]5CC6(CCCC6)CN5C(=O)[C@@H](NC(=O)OC)C5C[C@@H](C)O[C@H](C)C5)n4)cc3)cc2)c[nH]1)C1C[C@@H](C)O[C@H](C)C1 (stereo partly drawn) [Example JLR-1.0, dimethyl (4,4′-biphenyldiylbis(1H-imidazole-4,2-diyl(3S)-2-azaspiro[4.4]nonane-3,2-diyl((1S)-1-((2R,6R)-2,6-dimethyltetrahydro-2H-pyran-4-yl)-2-oxo-2,1-ethanediyl)))biscarbamate]
[1]
  EC50: 0.00501 to 0.1 nM

## COC(=O)N[C@H](C(=O)N1C[C@H](CC2CC2)C[C@H]1c1nc(-c2ccc(-c3ccc(-c4c[nH]c([C@@H]5C[C@@H](CC6CC6)CN5C(=O)[C@@H](NC(=O)OC)C5C[C@@H](C)O[C@H](C)C5)n4)cc3)cc2)c[nH]1)C1C[C@@H](C)O[C@H](C)C1 (stereo partly drawn) [Example JLR-2.0, dimethyl (4,4′-biphenyldiylbis(1H-imidazole-4,2-diyl((2S,4R)-4-(cyclopropylmethyl)-2,1-pyrrolidinediyl)((1S)-1-((2R,6R)-2,6-dimethyltetrahydro-2H-pyran-4-yl)-2-oxo-2,1-ethanediyl)))biscarbamate]
[1]
  EC50: 0.00501 to 0.1 nM

## COC(=O)NC(C(=O)N1CC(C)CC1c1ncc(-c2ccc(C3CC3c3ccc(-c4cnc(C5CC(C)CN5C(=O)C(NC(=O)OC)C5CCOC6(CC6)C5)[nH]4)cc3)cc2)[nH]1)C1CCOC2(CC2)C1 [Example OL1, dimethyl (((3S,3′S,5S,5′S)-5,5′-(5,5′-((1S,2S)-cyclopropane-1,2-diylbis(4,1-phenylene))bis(1H-imidazole-5,2-diyl))bis(3-methylpyrrolidine-5,1-diyl))bis(2-oxo-1-(4-oxaspiro[2.5]octan-7-yl)ethane-2,1-diyl))dicarbamate]
[2]
  EC50: 0.00501 to 0.1 nM
